US10087166B2, “Cyclic amine azaheterocyclic carboxamides” (Merck Patent GmbH, priority 2010, dated 2018)

Molecular target: T1, P70S6K (Homo sapiens, UniProt P23443, T412E)
T1 construct: purchased Millipore
Experiment: P70S6K enzyme assay
Type: biochemical
Details: P70S6K T412E mutant 3 nM, 24 μM ATP, FITC-AHA-AKRRRLSSLRA-OH substrate, 90 min at 25° C.; read-out: IC50p70S6K
Experimental: P70S6K inhibitor compounds are diluted and plated in 96 well plates. A reaction mixture including the following components is then added to the compound plate to initiate the enzyme reaction; P70S6K (3 nM, T412E mutant, Millipore) is mixed with 24 μM ATP in an assay buffer containing 100 mM Hepes (pH 7.5), 5 mM MgCl2, 1 mM DTT, 0.015% Brij and 1 μM of the substrate peptide FITC-AHA-AKRRRLSSLRA-OH (derived from the S6 ribosomal protein sequence, FITC=fluorescein isothiocyanate, AHA=6-aminohexanoic acid). The reaction is incubated for 90 min at 25° C., before the addition of 10 mM EDTA to stop the reaction. The proportion of substrate and product (phosphorylated) peptide is analyzed on a Caliper Life Sciences Lab Chip 3000, using a pressure of −1.4 psi, and upstream and downstream voltages of −3000 and −700 respectively. Product peaks are resolved before substrate peaks on the resulting chromatograms.
To assess the inhibitory potential of the compounds, IC50-values were determined, as shown in Chemical Synthesis section above.

T1 sequence (P23443 whole entry T412E): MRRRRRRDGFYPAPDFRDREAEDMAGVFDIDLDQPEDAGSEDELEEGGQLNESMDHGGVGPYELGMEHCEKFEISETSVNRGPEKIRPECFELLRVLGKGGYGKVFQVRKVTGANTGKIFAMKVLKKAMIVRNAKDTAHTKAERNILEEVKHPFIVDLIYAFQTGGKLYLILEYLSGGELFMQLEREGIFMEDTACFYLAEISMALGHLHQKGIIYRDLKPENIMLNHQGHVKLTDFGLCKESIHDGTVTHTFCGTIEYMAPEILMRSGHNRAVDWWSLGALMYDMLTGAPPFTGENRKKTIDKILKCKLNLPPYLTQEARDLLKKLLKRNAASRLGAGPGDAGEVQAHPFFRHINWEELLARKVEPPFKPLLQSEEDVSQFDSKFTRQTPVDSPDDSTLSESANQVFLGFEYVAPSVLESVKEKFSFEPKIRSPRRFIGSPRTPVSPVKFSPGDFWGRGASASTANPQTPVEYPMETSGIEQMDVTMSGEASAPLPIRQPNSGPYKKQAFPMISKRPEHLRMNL

| Structure (SMILES) | IC50 [nM] |
| --- | --- |
| CCc1nc(N[C@@H]2CNCC[C@H]2c2ccc(F)cc2)c2cccc(C(N)=O)c2n1 (racemic) [compound 133] | 3.6 |
| Cc1nc(N[C@@H]2CNCC[C@H]2c2ccc(F)cc2)c2cccc(C(N)=O)c2n1 (racemic) [compound 134] | 4.2 |
| COc1cccc([C@@H]2CCNC[C@H]2Nc2ncnc3c(C(N)=O)cccc23)c1 (racemic) [compound 135] | 4.3 |
| Cc1nc(N[C@@H]2CNCC[C@H]2c2ccccc2F)c2cccc(C(N)=O)c2n1 (racemic) [compound 136] | 210 |
| Cc1nc(N[C@@H]2CNCC[C@H]2c2cccc(C(F)(F)F)c2)c2cccc(C(N)=O)c2n1 (racemic) [compound 138, 2-methyl-4-(((3R,4R)-4-(3-(trifluoromethyl)phenyl)piperidin-3-yl)amino)quinazoline-8-] | 2.7 |
| COc1ccc([C@@H]2CCNC[C@H]2Nc2ncnc3c(C(N)=O)cccc23)cc1OC (racemic) [compound 139] | 18 |
| NC(=O)c1cccc2c(N[C@@H]3CNCC[C@H]3c3cc(F)cc(C(F)(F)F)c3)ncnc12 (racemic) [compound 140] | 3.1 |
| Cc1nc(N[C@@H]2CNCC[C@H]2c2ccc(C(F)(F)F)cc2)c2cccc(C(N)=O)c2n1 (racemic) [compound 141] | 2.9 |
| CCc1nc(N[C@@H]2CNCC[C@H]2c2ccccc2F)c2cccc(C(N)=O)c2n1 (racemic) [compound 142] | 450 |
| CCc1nc(N[C@@H]2CNCC[C@H]2c2cccc(C)c2)c2cccc(C(N)=O)c2n1 (racemic) [compound 144] | 5 |
| Cc1cc(C)cc(C2CCNCC2Nc2ncnc3c(C(N)=O)cccc23)c1 (racemic) [compound 145, 4-((4-(3,5-dimethylphenyl)piperidin-3-yl)amino)quinazoline-8-carboxamide] | 10 |
| NC(=O)c1cc(F)cc2c(N[C@@H]3CNCC[C@H]3c3ccccc3)ncnc12 (racemic) [compound 146, 6-fluoro-4-(((3R,4R)-4-phenylpiperidin-3-yl)amino)quinazoline-8-carboxamide] | 7.1 |
| NC(=O)c1cccc2c(N[C@@H]3CNC[C@H]3C(=O)Nc3ccccc3)ncnc12 (relative stereo) [compound 26, trans-4-(4-Phenylcarbamoyl-pyrrolidin-3-ylamino)-quinazoline-8-carboxylic acid amide] | 22 |
| NC(=O)c1cccc2c(NC3CNCC3c3ccccc3F)ncnc12 (stereo not drawn) [compound 4, 4-((4-(2-fluorophenyl)pyrrolidin-3-yl)amino)quinazoline-8-carboxamide] | 3.5 |
| NC(=O)c1cccc2c(NC3CNCC3c3ccc(F)cc3)ncnc12 (stereo not drawn) [compound 5, 4-((4-(4-fluorophenyl)pyrrolidin-3-yl)amino)quinazoline-8-carboxamide] | 2.6 |
| COc1ccc(C2CNCC2Nc2ncnc3c(C(N)=O)cccc23)cc1 (stereo not drawn) [compound 6, 4-((4-(4-methoxyphenyl)pyrrolidin-3-yl)amino)quinazoline-8-carboxamide] | 2 |
| COc1cccc(C2CNCC2Nc2ncnc3c(C(N)=O)cccc23)c1 (stereo not drawn) [compound 7, 4-((4-(3-methoxyphenyl)pyrrolidin-3-yl)amino)quinazoline-8-carboxamide] | 2.6 |
| COc1ccccc1C1CNCC1Nc1ncnc2c(C(N)=O)cccc12 (stereo not drawn) [compound 8, 4-((4-(2-methoxyphenyl)pyrrolidin-3-yl)amino)quinazoline-8-carboxamide] | 18 |
| Cc1nc(NC2CNCC2c2ccc(F)cc2)c2cccc(C(N)=O)c2n1 (stereo not drawn) [compound 17, 4-((4-(4-fluorophenyl)pyrrolidin-3-yl)amino)-2-methylquinazoline-8-carboxamide] | 2.4 |
| COc1ccc(C2CNCC2Nc2nc(C)nc3c(C(N)=O)cccc23)cc1 (stereo not drawn) [compound 18, 4-((4-(4-methoxyphenyl)pyrrolidin-3-yl)amino)-2-methylquinazoline-8-carboxamide] | 1.8 |
| NC(=O)c1cccc2c(NC3CNCC3c3cccc(F)c3)ccnc12 (stereo not drawn) [compound 21, 4-((4-(3-fluorophenyl)pyrrolidin-3-yl)amino)quinoline-8-carboxamide] | 13 |

| Structure (SMILES) | IC50 [nM] |
| --- | --- |
| NC(=O)c1cccc2c(NC3CNCC3c3ccccc3F)ccnc12 (stereo not drawn) [compound 22, 4-((4-(2-fluorophenyl)pyrrolidin-3-yl)amino)quinoline-8-carboxamide] | 9.4 |
| COc1ccccc1C1CNCC1Nc1ccnc2c(C(N)=O)cccc12 (stereo not drawn) [compound 23, 4-((4-(2-methoxyphenyl)pyrrolidin-3-yl)amino)quinoline-8-carboxamide] | 46 |
| NC(=O)c1cccc2c(N[C@@H]3CNC[C@H]3c3cc(F)cc(C(F)(F)F)c3)ncnc12 [compound 46, 4-(((3S,4R)-4-(3-fluoro-5-(trifluoromethyl)phenyl)pyrrolidin-3-yl)amino)quinazoline-8-carboxamide] | 2.6 |
| NC(=O)c1cccc2c(N[C@H]3CNC[C@@H]3c3cc(F)cc(C(F)(F)F)c3)ncnc12 [compound 47, 4-(((3R,4S)-4-(3-fluoro-5-(trifluoromethyl)phenyl)pyrrolidin-3-yl)amino)quinazoline-8-carboxamide] | 160 |
| NC(=O)c1cccc2c(N[C@@H]3CNC[C@H]3c3cccc(C(F)(F)F)c3)ncnc12 [compound 49, 4-(((3S,4R)-4-(3-(trifluoromethyl)phenyl)pyrrolidin-3-yl)amino)quinazoline-8-carboxamide] | 60 |
| NC(=O)c1cccc2c(N[C@H]3CNC[C@@H]3c3cccc(C(F)(F)F)c3)ncnc12 [compound 50, 4-(((3R,4S)-4-(3-(trifluoromethyl)phenyl)pyrrolidin-3-yl)amino)quinazoline-8-carboxamide] | 3 |
| NC(=O)c1cccc2c(N[C@H]3CNC[C@@H]3c3ccc(C(F)(F)F)cc3)ncnc12 [compound 53, 4-(((3R,4S)-4-(4-(trifluoromethyl)phenyl)pyrrolidin-3-yl)amino)quinazoline-8-carboxamide] | 66 |
| NC(=O)c1cccc2c(N[C@H]3CNC[C@H]3c3ccc(C(F)(F)F)cc3)ncnc12 [compound 54, 4-(((3R,4R)-4-(4-(trifluoromethyl)phenyl)pyrrolidin-3-yl)amino)quinazoline-8-carboxamide] | 1.3 |
| NC(=O)c1cccc2c(N[C@H]3CNC[C@@H]3c3cccc(OC(F)(F)F)c3)ncnc12 [compound 57] | 2.1 |
| NC(=O)c1cccc2c(N[C@H]3CNC[C@H]3c3cccc(OC(F)(F)F)c3)ncnc12 [compound 58, 4-(((3R,4R)-4-(3-(trifluoromethoxy)phenyl)pyrrolidin-3-yl)amino)quinazoline-8-carboxamide] | 0.98 |
| NC(=O)c1cccc2c(N[C@H]3CNC[C@@H]3c3ccc(OC(F)(F)F)cc3)ncnc12 [compound 60, 4-(((3R,4S)-4-(4-(trifluoromethoxy)phenyl)pyrrolidin-3-yl)amino)quinazoline-8-carboxamide] | 120 |
| NC(=O)c1cccc2c(N[C@@H]3CNC[C@H]3c3ccc(OC(F)(F)F)cc3)ncnc12 [compound 61, 4-(((3S,4R)-4-(4-(trifluoromethoxy)phenyl)pyrrolidin-3-yl)amino)quinazoline-8-carboxamide] | 1.5 |
| COc1ccc([C@@H]2CNC[C@H]2Nc2ncnc3c(C(N)=O)cccc23)cc1F [compound 62, 4-(((3S,4R)-4-(3-fluoro-4-methoxyphenyl)pyrrolidin-3-yl)amino)quinazoline-8-carboxamide] | 1.5 |
| COc1ccc([C@H]2CNC[C@@H]2Nc2ncnc3c(C(N)=O)cccc23)cc1F [compound 63, 4-(((3R,4S)-4-(3-fluoro-4-methoxyphenyl)pyrrolidin-3-yl)amino)quinazoline-8-carboxamide] | 810 |
| NC(=O)c1cccc2c(N[C@H]3CNC[C@@H]3c3ccccc3Cl)ncnc12 [compound 65, 4-(((3R,4S)-4-(2-chlorophenyl)pyrrolidin-3-yl)amino)quinazoline-8-carboxamide] | 340 |
| NC(=O)c1cccc2c(N[C@@H]3CNC[C@H]3c3ccccc3Cl)ncnc12 [compound 66, 4-(((3S,4R)-4-(2-chlorophenyl)pyrrolidin-3-yl)amino)quinazoline-8-carboxamide] | 1.4 |
| NC(=O)c1cccc2c(N[C@@H]3CNC[C@H]3c3cccc(F)c3)ncnc12 [compound 67, 4-(((3S,4R)-4-(3-fluorophenyl)pyrrolidin-3-yl)amino)quinazoline-8-carboxamide] | 1.54 |
| NC(=O)c1cccc2c(N[C@H]3CNC[C@@H]3c3cccc(F)c3)ncnc12 [compound 68, 4-(((3R,4S)-4-(3-fluorophenyl)pyrrolidin-3-yl)amino)quinazoline-8-carboxamide] | 48 |
| NC(=O)c1cccc2c(N[C@H]3CNC[C@@H]3c3ccc4ncccc4c3)ncnc12 [compound 70, 4-(((3R,4S)-4-(quinolin-6-yl)pyrrolidin-3-yl)amino)quinazoline-8-carboxamide] | 3.3 |
| NC(=O)c1cccc2c(N[C@@H]3CNC[C@H]3c3ccc4ncccc4c3)ncnc12 [compound 71, 4-(((3S,4R)-4-(quinolin-6-yl)pyrrolidin-3-yl)amino)quinazoline-8-carboxamide] | 62 |
| COc1cccc([C@H]2CNC[C@@H]2Nc2ncnc3c(C(N)=O)cccc23)c1 [compound 72, 4-(((3R,4S)-4-(3-methoxyphenyl)pyrrolidin-3-yl)amino)quinazoline-8-carboxamide] | 360 |
